Among the data in paper PMC6614837 (Nucleic Acids Research, 2019) are Kd values, retold here.

The target in the experiment is T1, P protein from T. maritima (Thermotoga maritima, UniProt Q9X1H4).
T1 construct: GST (cleaved yes); made in house; host or cells: E. coli BL21(DE3)pLysS
T1 sequence (Q9X1H4 1-117): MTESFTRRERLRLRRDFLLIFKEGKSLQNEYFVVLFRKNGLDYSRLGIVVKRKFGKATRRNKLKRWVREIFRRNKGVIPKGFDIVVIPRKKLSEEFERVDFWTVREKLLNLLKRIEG
Description: Biolayer interferometry binding to immobilized His-tagged P protein. To be noted: BLI, P protein on Ni-NTA, 1:1 Langmuir model. The procedure:
Immobilization of the His-tagged P protein from T. maritima at 0.05 mg/ml (3.4 μM) was performed on Ni-NTA biosensors. For the initial binding tests to the P protein, a compound concentration of 1 mM was used. Periods for each step of the assay were as follows: immobilization (400 s), wash (100 s), baseline establishment (100s), association (250 s), dissociation (250 s). For each titration curve, […] were used corresponding to the 125, 62.5, 31.25, 15.6 and 7.8 μM compound concentrations. Control biosensors were used to subtract non-specific binding of compounds to the biosensor surface. […] Kinetic binding parameters were calculated using Data Analysis 8.2 (ForteBio, Inc.). […]
Figure 5. […] Association and dissociation of the 5′ RNA leader to the P protein (TmP) is measured over time. […] P protein was immobilized on Ni-NTA biosensors after which its association and dissociation from indicated compounds were monitored. […] (C) Location of purpurin (green) on the T. maritima P protein as determined by X-ray crystallography (PDB code: 6MAX; see Supplementary Figure S19 and Supplementary Table S2). […]
Supplementary Figure 15. […] The pre-tRNA in buffer HAAMD (20 mM HEPES pH 7.4, 100 mM ammonium acetate, 10 mM MgCl2, 5% DMSO or 5% PEG 200) was measured against RNase P in concentrations ranging from 62.5 to 7.8 nM in a two-fold dilution series. […]
In general terms: BLI is a label-free optical method that tracks binding on a fibre tip over time.

The term Kd denotes a measure of binding affinity in units of concentration. A low value points to a tighter complex.

As for `O=C1c2ccccc2C(=O)c2c(O)c(O)cc(O)c21` [Purpurin, 1,2,4-trihydroxyanthraquinone], the Kd came to 6.8 µM.
